Reference: patent US20080125432A1 (Devgen NV, priority 2004, published 2008)

Target: T1, human Kv4.3/KChIP2.2 potassium channel (Homo sapiens, UniProt Q9UK17)
T1 construct: expressed in transfected cells
T1 sequence (Q9UK17 1-655): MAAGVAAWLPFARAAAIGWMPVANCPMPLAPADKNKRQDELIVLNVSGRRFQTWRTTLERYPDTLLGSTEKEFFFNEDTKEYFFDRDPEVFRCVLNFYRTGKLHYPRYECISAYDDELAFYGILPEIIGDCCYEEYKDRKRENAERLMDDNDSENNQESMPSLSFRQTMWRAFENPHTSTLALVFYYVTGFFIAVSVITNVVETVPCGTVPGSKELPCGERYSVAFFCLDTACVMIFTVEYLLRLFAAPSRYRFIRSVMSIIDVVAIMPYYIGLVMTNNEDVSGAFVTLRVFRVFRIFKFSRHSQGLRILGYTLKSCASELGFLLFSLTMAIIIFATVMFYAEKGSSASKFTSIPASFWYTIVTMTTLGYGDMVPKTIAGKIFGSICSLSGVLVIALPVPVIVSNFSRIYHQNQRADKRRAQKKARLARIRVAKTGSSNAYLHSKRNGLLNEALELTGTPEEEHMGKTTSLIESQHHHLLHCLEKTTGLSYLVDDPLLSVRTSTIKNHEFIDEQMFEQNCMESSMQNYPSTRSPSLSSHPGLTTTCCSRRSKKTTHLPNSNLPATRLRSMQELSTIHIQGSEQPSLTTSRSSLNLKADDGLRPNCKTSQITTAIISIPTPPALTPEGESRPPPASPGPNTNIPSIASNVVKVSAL
Experiment: Whole cell patch clamp, CHO-K1 cells stably expressing human Kv4.3/KChIP2.2
Assay type: cell-based
Details: CHO-K1; remaining current measured after application of the compound and relative to the blank; read-out: Kv4.3 charge in %
Experimental: For this experiment, a recombinant CHO-K1 cell line stably expressing the human Kv4.3/KChIP2.2 potassium channel was used. The cells used for this experiment were kept in continuous culture under standard conditions (37° C., air supplemented with 7% CO2). The CHO-K1 Kv4.3/KChIP2.2 cells were kept in Iscove s modified DMEM (Dulbecco's Modified Eagle's Medium) medium (IMEM) supplemented with 100 U/ml Penicillin, 100 μg/ml Streptomycin, 7% fetal calf serum (FCS), 2.5 μg/ml amphotericin, 400 μg/ml G418, and 400 μg/ml Zeocin™. Cells were passed every 3-4 days after detachment using a Trypsin solution. The quality of the cultured cells was guaranteed by vitality and contamination tests. The culture of the cells was performed as described in protocol D hereunder.
10 mM stock solutions of the compounds were prepared in DMSO. Solutions of the compounds were prepared by dilution of stock solution in bath solution. If the required stock solution volume was theoretically below 1 μl, bath solutions with higher compound concentration were used for dilution. The maximal DMSO concentration during experiments was 0.1% (v/v).
Activity of the human Kv4.3/KChIP2.2 channel was investigated using the patch clamp technique in its whole cell mode. This means that the current needed for clamping the whole cell expressing the K^+-channel protein to a specific potential was measured. Experiments were performed using a patch clamp set-up. Technical equipment needed for manipulation of the cells was placed on a vibration-isolated table and shielded with a Faraday cage to minimize electrical noise. The amplifier and control system were placed in a rack outside the Faraday cage. The system consisted of an EPC9 or EPC10 patch clamp amplifier (HEKA, Lambrecht, Germany), and the perfusion system DADVC8 (ALA Scientific, New York, USA) controlled by the Pulse software package (HEKA, Lambrecht, Germany) installed on a personal computer. The pipettes used for patch clamping were made of borosilicate glass.
Measurements were performed at room temperature (20-25° C.). In each experiment (i.e. each cell) only one concentration of the compounds was investigated no cumulative dosages were performed. Each cell acted as its own control. […]
Between voltage pulses the cell was clamped to a holding potential of −80 mV (inside). The test protocols are illustrated in FIG. 1 and Table 4. The test protocol illustrated in FIG. 1a was used to characterize the properties of the Kv4.3/KChIP2.2 channel and to check the quality of the individual patch clamp experiment (voltage control). […] Each test protocol consisted of 4 segments.
After the whole cell configuration was established a current-voltage curve (IV activation 1; FIG. 1a and Table 4a) was recorded under constant superfusion with bath solution to check for Kv4.3/KChIP2.2 expression and the quality of the individual patch clamp experiment (voltage control). Subsequently, 14 test pulses (series 1; FIG. 1b and Table 4b) were applied at 0.1 Hz under constant superfusion with bath solution. The protocol was initiated by a voltage jump to 100 mV (400 ms) to achieve full inactivation. Then the Kv4.3/KChIP2.2 channels were transferred to the open state by depolarization to +40 mV for 300 milliseconds (activation). Only cells generating current amplitudes between 1 nA and 50 nA were used for the experimental procedure. No or negligible rundown was observed.
Then, 36 test pulses (series 2) were applied at 0.1 Hz under constant superfusion with the compound dissolved in bath solution. Finally, another current-voltage curve was recorded in the presence of the compounds (IV activation 2).
Three different types of analysis were used: Inhibition at the peak current, inhibition of translocated charge and inhibition 75 ms after activation at +40 mV (sustained current). The peak current/charge/current at 75 ms was determined using the online analysis tool of the HEKA pulse software package. […]

remaining activity at 1 µM	Molecule
86%	COc1ccccc1Nc1nc(C)c(C(=O)N[C@H]2CCC[C@@H]2OCc2ccccc2)o1 [Compound 210, 2-(2-methoxy-phenylamino)-4-methyl-oxazole-5-carboxylic acid ((1S,2S)-2-benzyloxycyclopent-1-yl) amide]

Same assay, conditions: CHO-K1; remaining peak height measured after application of the compound and relative to the blank; read-out: Kv4.3 peak in %

remaining activity at 1 µM	Molecule
99%	COc1ccccc1Nc1nc(C)c(C(=O)N[C@H]2CCC[C@@H]2OCc2ccccc2)o1 [Compound 210, 2-(2-methoxy-phenylamino)-4-methyl-oxazole-5-carboxylic acid ((1S,2S)-2-benzyloxycyclopent-1-yl) amide]

Same assay, conditions: Kv4.3 mediated current, charge; patch clamp; read-out: Kv4.3 charge IC50

Molecule	IC50
Cc1nc(Nc2ccc(Br)cc2)sc1C(=O)NCc1ccncc1 [Compound 57, 2-(4-bromo-phenylamino)-4-methyl-thiazole-5-carboxylic acid (pyridin-4-ylmethyl)-amide]	11200 nM
Cc1nc(Nc2ccc(F)cc2)sc1C(=O)N[C@H]1CCC[C@@H]1OCc1ccccc1 [Compound 67, 2-(4-fluoro-phenylamino)-4-methyl-thiazole-5-carboxylic acid (1S,2S)-2-(benzyloxycyclopent-1-yl) amide]	1970 nM
2-(4-bromo-phenylamino)-4-methyl-thiazole-5-carboxylic acid naphth-1-yl methylamide [Compound 27]	2770 nM
COc1ccc(Cl)cc1Nc1nc(C)c(C(=O)N[C@@H]2CCC[C@H]2OCc2ccccc2)s1 [Compound 35, 2-(5-chloro-2-methoxy-phenylamino)-4-methyl-thiazole-5-carboxylic acid (1R,2R)-2-(benzyloxycyclopent-1-yl) amide]	3060 nM
Cc1nc(Nc2ccc(Br)cc2)sc1C(=O)NCc1ccccn1 [Compound 59, 2-(4-bromo-phenylamino)-4-methyl-thiazole-5-carboxylic acid (pyridin-2-ylmethyl)-amide]	3060 nM
COc1ccccc1Nc1nc(C)c(C(=O)N[C@H](C)c2ccc3ccccc3c2)s1 [Compound 53, 2-(2-methoxy-phenylamino)-4-methyl-thiazole-5-carboxylic acid (R)-1-(2-naphtalen-2-yl-ethyl)-amide]	3950 nM
C[C@@H](NC(=O)c1csc(Nc2ccccc2)n1)c1ccc([N+](=O)[O-])cc1 [Compound 47, 2-phenylamino-thiazole-4-carboxylic acid 1-((R)-4-nitrophenyl-ethyl)-amide]	1800 nM

Results, then the molecule that gave them:

IC50	Molecule
2550 nM	Cc1ccccc1Nc1nc(C)c(C(=O)N[C@@H](C)c2ccc3ccccc3c2)s1 [Compound 32]
1530 nM	COc1ccc(CNC(=O)c2sc(Nc3ccc(Br)cc3)nc2C)cc1OC [Compound 61, 2-(4-bromo-phenylamino)-4-methyl-thiazole-5-carboxylic acid 3,4-dimethoxy-benzylamide]
1260 nM	COc1cccc([C@@H](C)NC(=O)c2sc(Nc3ccc(Br)cc3)nc2C)c1 [Compound 21, 2-(4-bromo-phenylamino)-4-methyl-thiazole-5-carboxylic acid (R)-1-(3-methoxyphenyl)ethyl amide]
2130 nM	Cc1nc(N(C)c2ccc(Br)cc2)sc1C(=O)N[C@@H]1CCC[C@H]1OCc1ccccc1 [Compound 29, 2-(4-bromo-phenyl-methylamino)-4-methyl-thiazole-5-carboxylic acid (1R,2R)-2-(benzyloxycyclopent-1-yl) amide]
2180 nM	Cc1nc(Nc2ccc(Br)cc2)sc1C(=O)N[C@H]1CCC[C@@H]1OCc1ccccc1 [Compound 26, 2-(4-bromo-phenylamino)-4-methyl-thiazole-5-carboxylic acid (1S,2S)-2-(benzyloxycyclopent-1-yl) amide]
1060 nM	CCCN(Cc1ccc([N+](=O)[O-])cc1)C(=O)c1sc(Nc2ccc(Br)cc2)nc1C [Compound 28, 2-(4-bromo-phenylamino)-4-methyl-thiazole-5-carboxylic acid (4-nitro-benzyl)-propyl-amide]
4330 nM	Cc1nc(Nc2ccc(Br)cc2)sc1C(=O)NCc1cccnc1 [Compound 58, 2-(4-bromo-phenylamino)-4-methyl-thiazole-5-carboxylic acid (pyridin-3-ylmethyl)-amide]

System: not given
Experiment: not given
Details: not given

melting point	Molecule
138 to 164.7 °C	Cc1nc(Nc2ccc(Cl)cc2)sc1C(=O)NNc1ccc([N+](=O)[O-])cc1[N+](=O)[O-]
